A short description of series [1]: Stability of crystalline form during thermal treatment and grinding (XRPD). The series is classed as physicochemical. As to the method:
The crystalline form A was heated to 100° C. through programmed temperature or kept at 80° C. for 24 h in DSC.
A certain amount of hydrochloride salt crystalline form A was added to a mortar and ground at room temperature for 5 minutes.

Series [2] is described as follows: Dynamic vapor sorption (DVS) hygroscopicity analysis. The class given is physicochemical. As to the method:
The obtained solid form of the salt was analyzed by dynamic vapor sorption (DVS), using a dynamic vapor sorption analyzer with a model IGA Sorp (Hidentity Isochema). The samples are measured in gradient mode and tested over a humidity range of 0% to 90% with 10% humidity increments for each gradient.
The compound has strong hygroscopicity and is not conducive to preservation. The obtained salt solid form was analyzed by using dynamic vapor sorption (DVS). The hygroscopicity comparison between the hydrochloride salt crystalline form A and the mesylate salt crystalline form C is compared.

The test system of series [3] is AMLN diet-induced NASH in ob/ob mice. The experiment in a line: AMLN diet-induced NASH in ob/ob mice. The series is classed as in vivo. As to the method: Test method: (1) C57 mice and ob/ob mice were adaptively reared for 1 week. (1) The C57 mice were given LFD diet (normal mouse group), and the ob/ob mice were divided into two groups: (2) 15 mice were given LFD diet (blank control group), and the rest were given AMLN diet (containing 40 kcal % fat, 20 kcal % fructose and 2% cholesterol) for 14 weeks. (2) Sampling for pathology detection: C57+LFD diet group (n=3), ob/ob+ AMLN diet group (n=3), liver lesions were evaluated according to NAFLD activity score to estimate the degree of model construction; the mice in the ob/ob+ AMLN diet group were tested for fasting blood glucose (FBG); and blood was collected from the eye socket. The serum was separated, and ALT and insulin (INS) in the serum were detected. (3) Insulin resistance (HOMA-IR) was calculated according to HOMA-IR═INS(μ/mL)×FBG(mM)/22.5.

The test system of series [4] is 17α-Ethinylestradiol (E2-17a) induced cholestasis in rats. In words: 17α-ethinylestradiol (E2-17α) induced cholestasis in rats. The class given is in vivo. As to the method: Experimental method: E2-17α was administered by subcutaneous injection in the neck. The test compounds were administered by gavage for 7 days after modeling. After the last day of administration, the rats were fasted but had access to water. The experiment was performed on the next day, and treatment was performed after 24 h. The rats were anesthetized by intraperitoneal injection of 20% urethane (7 ml/kg). After anesthesia, the rats were fixed on a rat board to make a median abdominal incision from the xiphoid process of the upper abdomen downward, with a 3-4 cm incision. The common bile duct was isolated. A PE-10 polyethylene catheter (inner diameter: 0.28 mm, outer diameter: 0.61 mm) was used for intubation operation of the bile ducts. During the operation, the body […] was maintained between 37° C. and 38° C. with warm lamps and air conditioners to prevent changes in bile flow rate at low temperature. After the intubation was completed, the skin was sutured to prevent the water evaporation from the abdominal cavity. The other end of the bile duct cannula was drawn out and flowed into a fixed 0.2 mL collection tube, to consecutively perform collection every 15 min for 8 times.
Before the experiment, the weight of the bile collection tube was accurately weighed and recorded as B1. After the bile collection was completed in the experiment, the total weight of the bile and the collection tube was weighed and recorded as A2. The weight of bile in the tube was calculated by subtracting B1 from A2, and converted into volume according to 1 g/mL. The amount of bile secretion of rats in each group was expressed as mean±standard deviation (Mean±S.D). Bile Flow Rate (μL/Kg/Min)=(A2−B1)×1000000/Body Weight
The blood samples were allowed to stand for 2 h at room temperature, and centrifuged at 4000 rpm for 15 min. The serum was routinely separated to detect ALT, AST, and ALP. The left serum was aliquoted and frozen at −20° C. for subsequent detection.

[5] abbreviates: AMLN diet-induced Lep^ob/Lep^ob mice NASH model.

Where a name gives a salt, the structure may show the parent alone.

This is an account of results in patent US12331071B2, “Bile acid derivative salt, crystal structure thereof, preparation method therefor and use thereof” (XI'AN BIOCARE PHARMA LTD., priority 2020, dated 2025).

Take `CC[C@@H]1C2C[C@H](O)CC[C@]2(C)C2CC[C@@]3(C)C(CC[C@@H]3[C@H](C)CCO[P@@]3(=O)OCC[C@@H](c4ccncc4)O3)C2[C@@H]1O` (stereo partly drawn) [hydrochloride salt crystalline form A]: the XRPD after grinding result in series [1] (ground in a mortar at room temperature for 5 minutes) is “main diffraction peaks of the obtained samples have not changed”. In addition, the “XRPD after thermal treatment” value in series [1] (heated to 100° C. through programmed temperature or kept at 80° C. for 24 h in DSC) is listed as “main diffraction peaks of the obtained samples have not change”. Further, in series [2] (relative humidity lower than 75%), the “Hygroscopicity at low humidity” value is reported as “small”. Besides, the “Hygroscopicity (DVS results)” value in series [2] (relative humidity of 80%) was “hygroscopicity was 3.569%”. Besides, the “overall hygroscopicity, compared between salt forms” value in series [2] (versus mesylate salt crystalline form C) is recorded as “lower than that of mesylate salt crystalline form C”.

As to `CC[C@@H]1C2C[C@H](O)CC[C@]2(C)C2CC[C@@]3(C)C(CC[C@@H]3[C@H](C)CCO[P@@]3(=O)OCC[C@@H](c4ccncc4)O3)C2[C@@H]1O` (stereo partly drawn) [hydrochloride salt of Compound 1], in series [3] (setting [5]), the hepatocyte ballooning entry was “reduce” and the intralobular inflammation entry was “reduce”. Further, in series [3] (AMLN diet-induced Lep^ob/Lep^ob mouse NASH model), the “total score of NASH model” value is listed as “significantly reduce”. Moreover, in series [3] (NASH mice), the “level of ALT in the serum” value is “significantly reduce”, the “level of AST in the serum” value is reported as “significantly reduce” and the liver fibrosis result was “significantly reduce”. The “strength for promoting bile excretion, compared with the E2-17α group” value in series [4] (gavage for 7 days) is reported as “significantly increased”. The “effect of promoting bile excretion, compared with Compound 1” value in series [4] (gavage for 7 days, hydrochloride salt prepared in Example 3) was “superior effect of promoting bile excretion over Compound 1”. The “biliary excretion amount after 120 minutes” value in series [4] (versus model group (E2-17α group)) is listed as “still higher than that in the model group”.

`CC[C@@H]1C2C[C@H](O)CC[C@]2(C)C2CC[C@@]3(C)C(CC[C@@H]3[C@H](C)CCO[P@@]3(=O)OCC[C@@H](c4ccncc4)O3)C2[C@@H]1O.CS(=O)(=O)O` (stereo partly drawn) [mesylate salt crystalline form C]: the “solid state (XRPD) after DVS” value in series [2] (after moisture absorption) was “changes to an amorphous form”.
